These results are taken from ChEMBL document CHEMBL5316328, “Discovery of AXL Degraders with Improved Potencies in Triple-Negative Breast Cancer (TNBC) Cells” (J Med Chem, 2023).

Activity calls are given as the source filed them. The calls are words filed in the database; no cut-off is given here. Where only a bound is given, the exact number is not on record here.

In general, EC50 refers to the concentration that produces a half-maximal response. In general, IC50 refers to the concentration that gives 50% inhibition.

Assay [1] has as its target von Hippel-Lindau disease tumor suppressor/Tyrosine-protein kinase receptor UFO (Homo sapiens, UniProt P30530+P40337). Description: PROTAC activity at VHL/AXL in human MDA-MB-231 cells assessed as induction of AXL degradation incubated for 24 hrs by immunoblot analysis. The format is cell-based. In general terms: Immunoblotting shows a protein as a band on a membrane.

Assay [2] in a line: Antitumor activity against patient-derived breast cancer organoid assessed as reduction in cell viability incubated for 120 hrs by CellTiter-Glo 3D assay. The settings on record: Homo sapiens. The class given is functional, tissue-based. Background: Cellular ATP, detected with luciferase, serves as a proxy for viable cell number.
The species named for another assay is Homo sapiens. Put plainly: Antitumor activity against patient-derived breast cancer organoid assessed as phenotypic change at 5 uM incubated for 120 hrs by bright-field imaging microscopic analysis. The format is functional, tissue-based.
The test system of assay [3] is MDA-MB-231. Put plainly: Antiproliferative activity against human MDA-MB-231 cells expressing AXL assessed as inhibition of cell growth incubated for 72 hrs by CCK8 assay. The settings on record: MDA-MB-231, 72 h. The class given is functional, cell-based. For orientation: Tetrazolium dyes change colour on reduction, which living cells bring about.
Another assay deals with MDA-MB-436. Put plainly: Antiproliferative activity against human MDA-MB-436 cells expressing AXL assessed as inhibition of cell growth incubated for 72 hrs by CCK8 assay. The format is functional, cell-based. As to conditions: MDA-MB-436, 72 h.
Another assay concerns MDA-MB-453. Description: Antiproliferative activity against human MDA-MB-453 cells assessed as inhibition of cell growth incubated for 72 hrs by CCK8 assay. The format is functional, cell-based. The settings on record: MDA-MB-453, 72 h.
Assay [4] deals with MDA-MB-231. Description: Induction of apoptosis in human MDA-MB-231 cells assessed as viable cells at 100 nM incubated for 48 hrs by Annexin V-PE staining based flow cytometric analysis (reference value: 92.59 to 92.71%). The format is functional. The settings on record: read-out: Activity.
For assay [5], the system named is MDA-MB-231. Description: Induction of cell cycle arrest in human MDA-MB-231 cells assessed as S phase cells at 300 nM incubated for 24 hrs by PI staining based flow cytometric analysis (reference value: 9.64 to 10.79%). The format is functional.
Assay [6] relates to MDA-MB-231. Put plainly: Induction of apoptosis in human MDA-MB-231 cells assessed as necrotic cells at 300 nM incubated for 48 hrs by Annexin V-PE staining based flow cytometric analysis (reference value: 2.64 to 3.23%). The format is functional.
Assay [7] deals with MDA-MB-231. Description: Induction of cell cycle arrest in human MDA-MB-231 cells assessed as S phase cells at 33.3 nM incubated for 24 hrs by PI staining based flow cytometric analysis (reference value: 9.64 to 10.79%). The class given is functional.
The test system of assay [8] is MDA-MB-231. Description: Induction of cell cycle arrest in human MDA-MB-231 cells assessed as S phase cells at 100 nM incubated for 24 hrs by PI staining based flow cytometric analysis (reference value: 9.64 to 10.79%). The format is functional.
Assay [9] relates to MDA-MB-231. Put plainly: Induction of cell cycle arrest in human MDA-MB-231 cells assessed as G0/G1 phase cells at 33.3 nM incubated for 24 hrs by PI staining based flow cytometric analysis (reference value: 63.32 to 64.94%). The class given is functional.
For assay [10], the target named is Serine/threonine-protein kinase AKT (Homo sapiens) (UniProt P31751+Q9Y243+P31749). Description: Inhibition of AKT phosphorylation in human MDA-MB-231 at 1.2 to 100 nM incubated for 18 hrs by Western blot analysis. The class given is cell-based. As to conditions: dose 1.2-100 nM.
Assay [11] addresses ALK tyrosine kinase receptor (Homo sapiens, UniProt Q9UM73). Description: Inhibition of ALK (unknown origin).
Assay [12] concerns MDA-MB-231. Description: Induction of apoptosis in human MDA-MB-231 cells assessed as viable cells at 300 nM incubated for 48 hrs by Annexin V-PE staining based flow cytometric analysis (reference value: 92.59 to 92.71%). The format is functional. The settings on record: read-out: Activity.
In assay [13] the test system is MDA-MB-231. Put plainly: Induction of cell cycle arrest in human MDA-MB-231 cells assessed as decrease in CDK2 level at 100 to 300 nM by Western blot analysis. The class given is functional, cell-based. The settings on record: dose 100-300 nM.
Assay [14] deals with MDA-MB-231. Put plainly: Induction of apoptosis in human MDA-MB-231 cells assessed as early apoptotic cells at 100 nM incubated for 48 hrs by Annexin V-PE staining based flow cytometric analysis (reference value: 3.95 to 3.74%). The class given is functional.
Assay [15] relates to MDA-MB-231. Put plainly: Induction of apoptosis in human MDA-MB-231 cells assessed as late apoptotic cells at 300 nM incubated for 48 hrs by Annexin V-PE staining based flow cytometric analysis (reference value: 0.32 to 0.82%). The format is functional.
Assay [16] concerns MDA-MB-231. Description: Inhibition of migration in human MDA-MB-231 cells at 3.7 to 100 nM incubated for 18 hrs by transwell assay. The settings on record: dose 3.7-100 nM. The format is functional, cell-based.
In assay [17] the test system is MDA-MB-231. Put plainly: Induction of cell cycle arrest in human MDA-MB-231 cells assessed as decrease in cyclin B1 level at 100 to 300 nM by Western blot analysis. The format is functional, cell-based. The settings on record: dose 100-300 nM.
Assay [18] concerns MDA-MB-231. Description: Induction of apoptosis in human MDA-MB-231 cells assessed as upregulation of cleaved PARP expression at 100 to 300 nM by Western blot analysis. The settings on record: dose 100-300 nM. The class given is functional, cell-based.
The subject of assay [19] is MDA-MB-231. Put plainly: Induction of cell cycle arrest in human MDA-MB-231 cells assessed as accumulation of cell at G2/M phase at 300 nM incubated for 24 hrs by PI staining based flow cytometric analysis (reference value: 24.34 to 24.44%). The class given is functional.
In assay [20] the test system is MDA-MB-231. Put plainly: Induction of apoptosis in human MDA-MB-231 cells assessed as necrotic cells at 33.3 nM incubated for 48 hrs by Annexin V-PE staining based flow cytometric analysis (reference value: 2.64 to 3.23%). The class given is functional.
For assay [21], the system named is MDA-MB-231. Put plainly: Induction of apoptosis in human MDA-MB-231 cells assessed as late apoptotic cells at 33.3 nM incubated for 48 hrs by Annexin V-PE staining based flow cytometric analysis (reference value: 0.32 to 0.82%). The format is functional.
Assay [22] relates to MDA-MB-231. Put plainly: Induction of apoptosis in human MDA-MB-231 cells assessed as downregulation of caspase-9 expression at 100 to 300 nM by Western blot analysis. The format is functional, cell-based. As to conditions: dose 100-300 nM.
Assay [23] concerns MDA-MB-231. Put plainly: Induction of cell cycle arrest in human MDA-MB-231 cells assessed as G0/G1 phase cells at 300 nM incubated for 24 hrs by PI staining based flow cytometric analysis (reference value: 63.32 to 64.94%). The class given is functional.
Assay [24] concerns MDA-MB-231. Description: Induction of apoptosis in human MDA-MB-231 cells assessed as late apoptotic cells at 100 nM incubated for 48 hrs by Annexin V-PE staining based flow cytometric analysis (reference value: 0.32 to 0.82%). The class given is functional.
Assay [25] concerns MDA-MB-231. Description: Induction of apoptosis in human MDA-MB-231 cells assessed as early apoptotic cells at 33.3 nM incubated for 48 hrs by Annexin V-PE staining based flow cytometric analysis (reference value: 3.95 to 3.74%). The format is functional.
The test system of assay [26] is MDA-MB-231. Description: Induction of apoptosis in human MDA-MB-231 cells assessed as viable cells at 33.3 nM incubated for 48 hrs by Annexin V-PE staining based flow cytometric analysis (reference value: 92.59 to 92.71%). The class given is functional. The settings on record: read-out: Activity.
Assay [27] deals with MDA-MB-231. Description: Inhibition of cell invasion in human MDA-MB-231 cells at 3.7 to 100 nM incubated for 18 hrs by transwell assay. The format is functional, cell-based. The settings on record: dose 3.7-100 nM.
For assay [28], the system named is MDA-MB-231. Put plainly: Induction of apoptosis in human MDA-MB-231 cells assessed as necrotic cells at 100 nM incubated for 48 hrs by Annexin V-PE staining based flow cytometric analysis (reference value: 2.64 to 3.23%). The format is functional.
Assay [29] concerns MDA-MB-231. Put plainly: Induction of cell cycle arrest in human MDA-MB-231 cells assessed as G0/G1 phase cells at 100 nM incubated for 24 hrs by PI staining based flow cytometric analysis (reference value: 63.32 to 64.94%). The class given is functional.
The test system of assay [30] is MDA-MB-231. Description: Induction of apoptosis in human MDA-MB-231 cells assessed as early apoptotic cells at 300 nM incubated for 48 hrs by Annexin V-PE staining based flow cytometric analysis (reference value: 3.95 to 3.74%). The class given is functional.
The test system of assay [31] is MDA-MB-231. Put plainly: Induction of cell cycle arrest in human MDA-MB-231 cells assessed as accumulation of cell at G2/M phase at 100 nM incubated for 24 hrs by PI staining based flow cytometric analysis (reference value: 24.34 to 24.44%). The class given is functional.
Assay [32] has as its system MDA-MB-231. Put plainly: Induction of cell cycle arrest in human MDA-MB-231 cells assessed as accumulation of cell at G2/M phase at 33.3 nM incubated for 24 hrs by PI staining based flow cytometric analysis (reference value: 24.34 to 24.44%). The format is functional.

Chain of von Hippel-Lindau disease tumor suppressor/Tyrosine-protein kinase receptor UFO (P30530 whole entry): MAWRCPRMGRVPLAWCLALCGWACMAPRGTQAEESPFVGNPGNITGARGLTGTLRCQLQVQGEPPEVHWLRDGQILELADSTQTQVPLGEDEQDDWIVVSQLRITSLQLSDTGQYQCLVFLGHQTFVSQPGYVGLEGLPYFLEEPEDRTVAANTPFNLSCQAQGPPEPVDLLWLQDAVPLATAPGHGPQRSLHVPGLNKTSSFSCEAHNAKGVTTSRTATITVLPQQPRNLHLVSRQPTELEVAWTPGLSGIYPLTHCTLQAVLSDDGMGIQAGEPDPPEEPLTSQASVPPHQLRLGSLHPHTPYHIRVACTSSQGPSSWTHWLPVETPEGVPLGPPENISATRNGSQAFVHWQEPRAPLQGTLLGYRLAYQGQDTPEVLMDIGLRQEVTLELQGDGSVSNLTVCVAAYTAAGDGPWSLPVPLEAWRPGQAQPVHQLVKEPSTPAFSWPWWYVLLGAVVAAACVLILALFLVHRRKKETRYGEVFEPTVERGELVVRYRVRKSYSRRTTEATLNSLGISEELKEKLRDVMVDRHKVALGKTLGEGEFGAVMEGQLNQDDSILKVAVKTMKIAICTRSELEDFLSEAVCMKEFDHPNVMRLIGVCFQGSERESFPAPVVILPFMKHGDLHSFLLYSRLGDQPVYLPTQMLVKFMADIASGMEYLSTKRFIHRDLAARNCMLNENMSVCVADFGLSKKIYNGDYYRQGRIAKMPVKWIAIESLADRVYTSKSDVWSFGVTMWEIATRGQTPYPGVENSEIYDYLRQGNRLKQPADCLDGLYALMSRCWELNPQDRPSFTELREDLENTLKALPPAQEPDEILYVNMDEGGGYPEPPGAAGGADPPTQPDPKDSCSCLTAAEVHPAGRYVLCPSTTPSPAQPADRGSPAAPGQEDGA
Chain of von Hippel-Lindau disease tumor suppressor/Tyrosine-protein kinase receptor UFO (P40337 whole entry): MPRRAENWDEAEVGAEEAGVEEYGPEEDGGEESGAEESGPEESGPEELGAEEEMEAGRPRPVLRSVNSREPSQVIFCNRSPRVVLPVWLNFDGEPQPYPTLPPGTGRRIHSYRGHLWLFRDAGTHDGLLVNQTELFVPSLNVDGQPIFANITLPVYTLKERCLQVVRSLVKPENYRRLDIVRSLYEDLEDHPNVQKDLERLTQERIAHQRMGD
Chain of Serine/threonine-protein kinase AKT (Homo sapiens) (P31749 whole entry, looked up): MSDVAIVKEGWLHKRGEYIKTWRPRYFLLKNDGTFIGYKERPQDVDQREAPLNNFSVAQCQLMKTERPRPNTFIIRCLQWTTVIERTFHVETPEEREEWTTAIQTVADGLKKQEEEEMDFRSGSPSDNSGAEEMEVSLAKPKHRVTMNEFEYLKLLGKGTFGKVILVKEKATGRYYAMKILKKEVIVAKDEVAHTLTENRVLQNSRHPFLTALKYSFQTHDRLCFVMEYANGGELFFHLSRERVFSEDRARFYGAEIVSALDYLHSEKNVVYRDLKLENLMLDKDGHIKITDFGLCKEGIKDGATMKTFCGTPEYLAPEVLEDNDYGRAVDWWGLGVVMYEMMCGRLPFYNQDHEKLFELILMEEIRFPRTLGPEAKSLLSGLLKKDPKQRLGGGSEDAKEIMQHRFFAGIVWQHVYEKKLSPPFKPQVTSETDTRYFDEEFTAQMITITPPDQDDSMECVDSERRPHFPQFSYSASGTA
Chain of Serine/threonine-protein kinase AKT (Homo sapiens) (P31751 whole entry, looked up): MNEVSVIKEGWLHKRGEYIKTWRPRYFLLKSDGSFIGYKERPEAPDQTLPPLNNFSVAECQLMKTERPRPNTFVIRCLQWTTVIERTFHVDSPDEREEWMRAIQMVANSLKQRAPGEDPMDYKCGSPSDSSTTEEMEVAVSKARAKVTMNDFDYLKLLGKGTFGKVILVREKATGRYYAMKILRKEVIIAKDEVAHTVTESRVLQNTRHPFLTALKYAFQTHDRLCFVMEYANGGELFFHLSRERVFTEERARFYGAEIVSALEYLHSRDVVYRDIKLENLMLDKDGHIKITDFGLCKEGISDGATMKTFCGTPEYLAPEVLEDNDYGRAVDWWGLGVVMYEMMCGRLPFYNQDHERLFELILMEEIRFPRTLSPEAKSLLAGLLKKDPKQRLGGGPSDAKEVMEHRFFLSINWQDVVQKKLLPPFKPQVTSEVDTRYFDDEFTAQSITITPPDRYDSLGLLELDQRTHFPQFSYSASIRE
Chain of Serine/threonine-protein kinase AKT (Homo sapiens) (Q9Y243 whole entry, looked up): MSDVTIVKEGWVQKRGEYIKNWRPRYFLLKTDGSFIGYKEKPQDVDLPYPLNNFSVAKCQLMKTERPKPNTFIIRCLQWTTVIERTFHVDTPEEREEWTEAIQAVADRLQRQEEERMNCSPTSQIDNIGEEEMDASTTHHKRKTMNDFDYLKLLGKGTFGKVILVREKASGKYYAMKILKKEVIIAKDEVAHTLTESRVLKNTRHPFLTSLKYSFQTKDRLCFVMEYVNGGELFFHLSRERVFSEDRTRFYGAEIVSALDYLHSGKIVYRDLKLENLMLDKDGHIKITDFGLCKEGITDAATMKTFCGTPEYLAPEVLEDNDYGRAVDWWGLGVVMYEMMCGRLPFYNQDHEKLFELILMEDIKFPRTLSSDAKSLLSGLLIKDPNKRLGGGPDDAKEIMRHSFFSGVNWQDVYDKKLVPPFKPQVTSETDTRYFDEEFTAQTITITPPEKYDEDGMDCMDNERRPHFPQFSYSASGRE
Chain of ALK tyrosine kinase receptor (Q9UM73 whole entry): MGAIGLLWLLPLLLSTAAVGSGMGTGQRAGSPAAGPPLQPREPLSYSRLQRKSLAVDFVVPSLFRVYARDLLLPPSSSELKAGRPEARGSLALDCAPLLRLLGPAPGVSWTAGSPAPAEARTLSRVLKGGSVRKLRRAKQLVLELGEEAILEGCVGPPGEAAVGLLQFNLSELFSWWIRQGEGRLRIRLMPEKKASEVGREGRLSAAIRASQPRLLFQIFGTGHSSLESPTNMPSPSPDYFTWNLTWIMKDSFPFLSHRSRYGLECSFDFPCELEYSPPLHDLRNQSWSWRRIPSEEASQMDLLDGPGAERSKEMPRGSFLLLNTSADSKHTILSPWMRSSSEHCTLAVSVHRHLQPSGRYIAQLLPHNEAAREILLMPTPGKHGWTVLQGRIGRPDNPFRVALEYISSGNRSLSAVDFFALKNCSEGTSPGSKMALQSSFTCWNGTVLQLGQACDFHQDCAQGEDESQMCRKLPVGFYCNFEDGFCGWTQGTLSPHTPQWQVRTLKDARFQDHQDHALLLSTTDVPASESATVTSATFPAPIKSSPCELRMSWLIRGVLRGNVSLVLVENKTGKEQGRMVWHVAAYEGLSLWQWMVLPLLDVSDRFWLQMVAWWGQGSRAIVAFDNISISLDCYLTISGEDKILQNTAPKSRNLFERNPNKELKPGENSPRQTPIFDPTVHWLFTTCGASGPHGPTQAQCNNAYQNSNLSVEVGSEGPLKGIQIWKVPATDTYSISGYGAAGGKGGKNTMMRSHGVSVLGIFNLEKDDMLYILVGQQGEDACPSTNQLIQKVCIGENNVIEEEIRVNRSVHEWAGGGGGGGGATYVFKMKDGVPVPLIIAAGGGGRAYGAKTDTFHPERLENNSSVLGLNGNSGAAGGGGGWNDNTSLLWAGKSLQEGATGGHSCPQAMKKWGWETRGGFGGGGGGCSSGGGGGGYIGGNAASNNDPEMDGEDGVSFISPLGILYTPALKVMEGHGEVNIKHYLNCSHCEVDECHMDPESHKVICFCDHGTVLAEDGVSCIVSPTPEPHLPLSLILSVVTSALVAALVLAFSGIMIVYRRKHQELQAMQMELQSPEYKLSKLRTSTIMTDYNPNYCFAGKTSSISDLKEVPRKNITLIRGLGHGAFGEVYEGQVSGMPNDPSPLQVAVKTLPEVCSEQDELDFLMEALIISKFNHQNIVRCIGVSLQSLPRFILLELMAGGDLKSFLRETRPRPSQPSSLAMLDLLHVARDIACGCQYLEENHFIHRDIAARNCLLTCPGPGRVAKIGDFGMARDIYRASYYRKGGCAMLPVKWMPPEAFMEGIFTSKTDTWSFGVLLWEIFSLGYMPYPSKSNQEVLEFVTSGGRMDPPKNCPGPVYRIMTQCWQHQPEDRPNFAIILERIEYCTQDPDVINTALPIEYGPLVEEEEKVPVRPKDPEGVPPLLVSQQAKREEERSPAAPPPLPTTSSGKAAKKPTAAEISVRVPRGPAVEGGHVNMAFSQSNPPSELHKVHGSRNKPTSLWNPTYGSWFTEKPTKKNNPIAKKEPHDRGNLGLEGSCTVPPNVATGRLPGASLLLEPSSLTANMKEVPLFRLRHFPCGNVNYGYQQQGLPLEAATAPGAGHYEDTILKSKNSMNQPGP

`CCc1ccc2c(c1)c(=O)c(C(=O)Nc1ccc(Oc3ncnc4cc(OCCCCCCCCCCCC(=O)N[C@H](C(=O)N5C[C@H](O)C[C@H]5C(=O)NCc5ccc(-c6scnc6C)cc5)C(C)(C)C)c(OC)cc34)c(F)c1)c(C)n2C`: the EC50 in assay [1] was over 10 µM.

On to `CCc1ccc2c(c1)c(=O)c(C(=O)Nc1ccc(Oc3ncnc4cc(OCCCC(=O)N[C@H](C(=O)N5C[C@H](O)C[C@H]5C(=O)NCc5ccc(-c6scnc6C)cc5)C(C)(C)C)c(OC)cc34)c(F)c1)c(C)n2C`, for which the EC50 in assay [1] is over 10 µM.

In the case of `CCc1ccc2c(c1)c(=O)c(C(=O)Nc1ccc(Oc3ncnc4cc(OCC(=O)N[C@H](C(=O)N5C[C@H](O)C[C@H]5C(=O)NCc5ccc(-c6scnc6C)cc5)C(C)(C)C)c(OC)cc34)c(F)c1)c(C)n2C`, the EC50 in assay [1] is over 10 µM.

Take `CC(=O)O[C@H]1C(=O)[C@@]2(C)[C@H]([C@H](OC(=O)c3ccccc3)[C@]3(O)C[C@H](OC(=O)[C@H](O)[C@@H](NC(=O)c4ccccc4)c4ccccc4)C(C)=C1C3(C)C)[C@]1(OC(C)=O)CO[C@@H]1C[C@@H]2O` [PACLITAXEL]: the IC50 in [2] was over 5 µM. Moreover, the result in the assay filed under Homo sapiens was inactive.

With `CCc1ccc2c(c1)c(=O)c(C(=O)Nc1ccc(Oc3ncnc4cc(OCCCCCC(=O)Nc5ccc6c(c5)CN(C5CCC(=O)N(C)C5=O)C6=O)c(OC)cc34)c(F)c1)c(C)n2C` (stereo not given), the IC50 in the assay with MDA-MB-231 [3], in the assay with MDA-MB-436 and in the assay on MDA-MB-453 was over 5 µM in each case.

In the case of `CCc1ccc2c(c1)c(=O)c(C(=O)Nc1ccc(Oc3ncnc4cc(OC)c(OC)cc34)c(F)c1)c(C)n2C`, in the assay with MDA-MB-231 [4], the viability at 0.1 µM stood at 94.6%. Also, the Activity in the assay with MDA-MB-231 [5] was found to be 9.32%; with MDA-MB-231 [6] it was 1.66%; in the assay with MDA-MB-231 [7], 12.03%; in the assay on MDA-MB-231 [8] it was 16.56%; in the assay with MDA-MB-231 [9] it was 56.88%; in the assay with MDA-MB-231 [14], 3.02%. Also, the Activity in the assay on MDA-MB-231 [15] was determined as 0.15%; in the assay on MDA-MB-231 [19], 27.64%; in the assay on MDA-MB-231 [20], 1.8%; in the assay with MDA-MB-231 [21], 0.29%; with MDA-MB-231 [23], 61.26%; in the assay with MDA-MB-231 [24], 0.41%. In addition, the Activity in the assay on MDA-MB-231 [25] turned out to be 3.01%; in the assay with MDA-MB-231 [28] it was 1.99%; with MDA-MB-231 [29], 52.76%; in the assay on MDA-MB-231 [30], 3.11%; in the assay with MDA-MB-231 [31], 24.87%; in the assay on MDA-MB-231 [32] it was 26.91%. Also, the inhibition entry (in assay [10]; in the assay on MDA-MB-231 [16]) was “inactive” throughout. Moreover, the IC50 with MDA-MB-231 [3] was over 5 µM; in assay [11], 4.92 nM; with MDA-MB-436 it was over 5 µM; in the assay on MDA-MB-453, over 5 µM. Besides, the viability at 0.3 µM in the assay with MDA-MB-231 [12] worked out at 95.1%. Further, the outcome in the assay with MDA-MB-231 [13], with MDA-MB-231 [17], in the assay with MDA-MB-231 [18] and with MDA-MB-231 [22] was inactive. The viability at 0.0333 µM in the assay on MDA-MB-231 [26] stood at 94.9%. In addition, the inhibition result in the assay with MDA-MB-231 [27] is “Active”.
